Assay [1] deals with T1, CRISP2 (Homo sapiens, UniProt P16562).
T1 sequence (P16562 22-243): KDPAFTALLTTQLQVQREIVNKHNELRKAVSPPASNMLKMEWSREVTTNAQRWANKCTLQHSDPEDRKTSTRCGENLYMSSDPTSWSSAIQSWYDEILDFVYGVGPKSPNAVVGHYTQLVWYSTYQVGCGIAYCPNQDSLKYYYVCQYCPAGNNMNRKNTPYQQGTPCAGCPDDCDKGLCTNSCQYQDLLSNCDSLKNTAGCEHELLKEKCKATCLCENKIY
Kind of assay: Microscale thermophoresis (MST) binding to fluorescently labeled CRISP2. How it is done:
(§1) MST is based on the diffusion of a fluorescently labeled molecule along a microscopic temperature gradient. In this assay, the free protein diffuses faster than its ligand-bound form. Ligands can range from small ions to low molecular weight compounds, liposomes, and even entire viruses ([35], [39], [40], [41]).
(§2) To assess protein-protein and protein-lipid interactions, MST experiments were performed using a Monolith NT.115 (Nanotemper Technologies). […] Samples were loaded into MST standard capillaries, and MST measurements were performed using an 80% laser power setting. The dissociation constant Kd was obtained by plotting the fraction bound against the logarithm of ligand concentration, using Prism software to fit a binding curve to the data point using the "one site specific" binding option. All MST measurements were performed in triplicate, with each set of experiments including a negative control to rule out nonspecific binding.
Background: In MST a laser heats a spot of the sample, and binding alters the fluorescence response.

In assay [2] the target is T2, CRISP2 (Homo sapiens, UniProt P16562).
T2 sequence (P16562 22-243): T1 sequence (P16562 22-243)
T2 sequence (P04217 with tags, fused parts or gaps partner): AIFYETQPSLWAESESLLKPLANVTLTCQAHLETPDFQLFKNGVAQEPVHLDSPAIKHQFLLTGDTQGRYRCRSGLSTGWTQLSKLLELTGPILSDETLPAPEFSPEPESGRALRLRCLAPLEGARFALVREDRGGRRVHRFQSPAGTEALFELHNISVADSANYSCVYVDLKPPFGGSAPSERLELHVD
The assay is described as above. The note with it: Kd of cholesterol sulfate binding by CRISP2 in the presence of Ig1, MST; CRISP2-Ig1. The procedure: as §1, §2

The next assay deals with T3, CRISP2^L98G Y99P (Homo sapiens, UniProt P16562, L98G/Y99P).
T3 construct: made in house; host or cells: E. coli BL21
T3 sequence (P16562 22-243 L98G/Y99P): T1 sequence (P16562 22-243) with L77G, Y78P
Kind of assay: MST binding to labeled CRISP2 L98G Y99P mutant. How it is done: as §2

The target of another assay is T4, A1BG (Homo sapiens, UniProt P04217).
T4 construct: made in house; host or cells: E. coli BL21
T4 sequence (P04217 22-495): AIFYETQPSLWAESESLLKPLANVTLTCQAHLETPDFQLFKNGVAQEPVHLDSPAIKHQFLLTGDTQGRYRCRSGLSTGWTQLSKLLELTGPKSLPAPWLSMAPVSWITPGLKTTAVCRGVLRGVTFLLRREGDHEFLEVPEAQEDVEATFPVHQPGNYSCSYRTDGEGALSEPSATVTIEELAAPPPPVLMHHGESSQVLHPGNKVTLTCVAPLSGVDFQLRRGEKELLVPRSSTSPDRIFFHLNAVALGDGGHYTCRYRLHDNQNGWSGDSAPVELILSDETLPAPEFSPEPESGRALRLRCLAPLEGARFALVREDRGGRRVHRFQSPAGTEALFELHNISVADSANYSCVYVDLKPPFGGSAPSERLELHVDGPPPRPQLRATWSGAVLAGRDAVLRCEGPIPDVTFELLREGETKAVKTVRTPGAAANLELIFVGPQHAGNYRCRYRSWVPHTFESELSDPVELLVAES
Put plainly: MST lipid binding to A1BG. The note with it: A1BG alone. How it is done: as §2

Assay [3] concerns the target CRISP2 (cysteine-rich secretory protein 2), purified, fluorescently labeled (UniProt P16562). Kind of assay: MST; 100 nM RED-tris-NTA-labeled CRISP2 (or L98G Y99P mutant) mixed with a serial dilution of unlabeled A1BG or Ig domain; 20 mM Tris pH 7.5, 30 mM NaCl, 0.05% Triton X-100; Monolith NT.115, 80% laser power; one site specific fit; triplicates.

Positions count from the first letter of the chain named. Several values for one entry are separate records, joined by “and”; a condition that tells them apart may be missing. Equal entries are not always repeated. Structures can show the parent of a compound that is named as a salt.

A word on the Kd: it is the constant that tells how readily two partners part at equilibrium. Regarding `CC(C)CCC[C@@H](C)[C@H]1CC[C@H]2[C@@H]3CC=C4C[C@@H](OS(=O)(=O)O)CC[C@]4(C)[C@H]3CC[C@]12C` [cholesterol sulfate], the equilibrium dissociation constant (Kd) was 70 ± 20 nM at CRISP2 [1] (Kd of cholesterol sulfate binding by CRISP2 + EDTA + MgCl2, MST, EDTA 5 mM, MgCl2 10 mM); 3210 nM and 2630 nM at CRISP2 [1] (Kd of cholesterol sulfate binding by CRISP2, MST, CRISP2 alone); 2050 ± 760 nM on CRISP2 [1] (Kd of cholesterol sulfate binding by CRISP2 in the presence of Ig4, MST, CRISP2-Ig4); 4000 ± 1980 nM on CRISP2 [2]. For the same molecule, at CRISP2 [1] (MST, equimolar concentration of A1BG), the “Kd of cholesterol sulfate binding by CRISP2 in the presence of A1BG” value was “blocked”. Besides, the “Kd of cholesterol sulfate binding by CRISP2 L98G Y99P in the presence of Ig3” value at CRISP2^L98G Y99P was “inhibited”.

`CCCCCCCCCCCCCCCC(=O)O` [palmitic acid]: the Kd at CRISP2 [1] (Kd of palmitic acid binding by CRISP2, MST, CRISP2 alone) is 64600 ± 20700 nM; on CRISP2 [1] (Kd of palmitic acid binding by CRISP2 in the presence of A1BG, MST, CRISP2+A1BG), 70000 ± 22700 nM. In addition, the “Kd of palmitic acid binding by A1BG” value at A1BG is “did not bind”.

In assay [3], “Ig1 domain of A1BG, purified (domain or fragment)” had a Kd of 38.7 nM.

In assay [3], “Ig3 domain of A1BG, purified (domain or fragment)” yielded a Kd of 13.8 nM.
